Assays:
[1] = target: T1, DNA topoisomerase II (Homo sapiens) (UniProt P11388+Q02880); assay: (§1) Compound was tested for percentage inhibition against DNA topoisomerase II; format: protein assay; conditions: concentration not given here
[2] = target: T1, DNA topoisomerase II (Homo sapiens); assay: as §1; format: protein assay; design: concentration or dose not given beside the values; conditions: concentration not given here

Structure (SMILES) | inhibition [1] | inhibition [2]
COc1cc([C@@H]2c3cc4c(cc3[C@@H](O)C3COC(=O)[C@@H]32)OCO4)cc(O)c1O (some centres undefined) | 75% | 
COc1cc([C@@H]2c3cc4c(cc3[C@@H](O)[C@H]3COC(=O)[C@H]23)OCO4)cc(OC)c1O |  | 60%
COc1cc([C@@H]2c3cc4c(cc3[C@H](O)[C@H]3COC(=O)[C@H]23)OCO4)cc(OC)c1OC |  | 30%
COc1cc([C@@H]2c3cc4c(cc3[C@@H](O[C@@H]3O[C@@H]5CO[C@@H](C)O[C@H]5[C@H](O)[C@H]3O)[C@H]3COC(=O)[C@H]23)OCO4)cc(OC)c1O |  | 85%
COc1cc([C@@H]2c3cc(O)c(O)c(O)c3CC3COC(=O)[C@@H]32)cc(OC)c1O (some centres undefined) | 45% | 
COc1cc([C@@H]2c3cc4c(c(OC(C)=O)c3CC3COC(=O)[C@@H]32)OCO4)cc(OC)c1OC(C)=O (some centres undefined) | 10% | 
COc1cc([C@@H]2c3cc(OC(C)=O)c(OC(C)=O)c(OC(C)=O)c3CC3COC(=O)[C@@H]32)cc(OC)c1OC(C)=O (some centres undefined) | 25% | 
COc1cc([C@@H]2c3cc4c(c(O)c3C[C@H]3COC(=O)[C@@H]32)OCO4)cc(OC)c1O |  | 20%
CCO[C@@H]1c2cc3c(cc2[C@@H](c2cc(OC)c(O)c(OC)c2)[C@H]2C(=O)OCC12)OCO3 (some centres undefined) |  | 89%

Source: ChEMBL document CHEMBL1123354, “Antitumor agents. 78. Inhibition of human DNA topoisomerase II by podophyllotoxin and alpha-peltatin analogues” (J Med Chem, 1986)
